# Assays:
# [1] = test system: ACLY, FASN, SCD in SMMC7721 cells; experiment: RT-qPCR/WB of fatty acid synthesis genes in SMMC7721 cells; type: cell-based; conditions: after GSK126 treatment
# Description: (§1) FIG. 4: Lipid accumulation in mice after GSK126 treatment. (A) H & E and oil red O staining of the liver tissue sections of the tumor-bearing mice in the control group and the GSK126 treatment group, in which the statistical results of negative or positive staining area were shown on the right (3 replicates per group); (B) TG level in the serum of the tumor-bearing mice in the control group and the GSK126 treatment group (5 replicates per group); (C-D) mRNA (C) and protein (D) levels of the genes related to fatty acid anabolism in the GSK126-treated HCC cells, as detected by RT-qPCR and WB (3 replicates per group). 3 to 5 replicates were established for each group, with *P<0.05, **P<0.01.
# (§2) FIG. 6: Lipid-modulating drugs can enhance the inhibitory effect of GSK126 on cancer cells. […] 3 to 5 replicates were established for each group, with *P<0.05, **P<0.01, and ***P<0.001.
# (§3) C57BL/6 mice (6-8 weeks old) were subcutaneously implanted with B16F10 cells and then treated with GSK126. […] Therefore, the expression of fatty acid synthesis-related genes in GSK126-treated hepatocellular carcinoma (HCC) cell lines SMMC7721 and Huh7 was further detected.
# B16F10 cells = experiment: Apoptosis of B16F10 cells by flow cytometry and live-cell fluorescence imaging; type: cell-based; conditions: GSK126 10 μM
# Description: (§4) FIG. 2: Melanoma cells B16F10 are less sensitive to GSK126. (A) Cell scratch assay, showing the effect of GSK126 (10 μM) treatment on the migration capability of B16F10 cells, with 3 replicates per group; (B-C) the effect of GSK126 (10, 13, and 15 μM) on the apoptosis rate of B16F10 cells, as examined by flow cytometry (C) and Annexin V staining assay. 3 replicates were established for each group, with *P<0.05, **P<0.01, and ***P<0.001, and ns for no statistical difference.
# (§5) Next, to further validate the effect of GSK126 at 10 μM on melanoma cells B16F10,scratch assay was conducted. […] In addition, to assess the anti-survival effect of GSK126, B16F10 cells were treated by GSK126 at different concentrations for different periods, and the apoptosis rate of the cells was analyzed by flow cytometry (FIG. 2B) and live-cell fluorescence imaging (FIG. 2C).
# [2] = test system: Burkitt's lymphoma cells (Daudi); experiment: CCK-8 cell proliferation assay, Daudi; type: cell-based
# Description: (§6) FIG. 1: Hematological tumors are more sensitive to GSK126 than solid tumors. (A) Proliferation of B16F10, Huh7 and SMMC7721 cells in GSK126 (10-20 μM) treatment was monitored by Incucyte S3 with 6 replicates per group; (B) Viabilities of Daudi and THP-1cells after GSK126 (200 nM to 24 μM) treatment for 24 h and 48 h were measured by CCK-8 assay with 5 replicates per group; (C) Western blot (WB) analysis on B16F10 cells after 48 h without or with GSK126 treatment (6 μM, and 12 μM), with H3 used as an internal reference for histone. 5 to 6 replicates were established for each group, with *P<0.05, **P<0.01, and ***P<0.001, and ns for no statistical difference.
# melanoma B16F10 cells [3] = experiment: Fatty acid metabolite levels in B16F10 cells; type: cell-based; conditions: GSK126 group
# Description: FIG. 3: GSK126 results in significant elevated levels of 6 fatty acids in melanoma B16F10 cells.
# Among the metabolites with significant changes, the levels of many fatty acids increased in the GSK126 group. There are five polyunsaturated fatty acids, including α-linolenic acid, DHA, EPA, linoleic acid, and γ-linolenic acid) and one monounsaturated fatty acid, i.e., 10Z-heptadienoic acid (FIG. 3).
# [4] = test system: hematologic cancer cell lines; conditions: most hematologic cancer cell lines; many studies; read-out: IC50 (half-maximal inhibitory concentration); cited from earlier work
# hepatoma SMMC-7721 cells = experiment: IncuCyte S3 live-cell proliferation of SMMC-7721 cells; type: cell-based
# Description: as §6, §2
# (§7) In order to accurately assess the responsiveness of solid tumor cells to EZH2 inhibitors, the effects of GSK126 at different concentrations on the proliferation of melanoma B16F10 cells and hepatoma Huh7 and SMMC-7721 cells were initially detected by IncuCyte S3® Live-Cell Analysis System.
# [5] = test system: H3K27me3 level in B16F10 cells; experiment: Western blot of H3K27me3 in B16F10 cells; type: cell-based; conditions: GSK126 6 μM, 48 h, H3 internal reference
# Description: as §6
# [6] = test system: ACLY, FASN, SCD in Huh7 cells; experiment: RT-qPCR/WB of fatty acid synthesis genes in Huh7 cells; type: cell-based; conditions: after GSK126 treatment
# Description: as §1, §3
# [7] = test system: mouse brain glioma cell line (GL261); experiment: IncuCyte S3 live-cell proliferation of GL261 cells; type: cell-based
# Description: 3 to 6 replicates were established for each group, with *P<0.05, **P<0.01, and ***P<0.001, and ns for no statistical difference.
# IncuCyte S3® Live-Cell Analysis System was used to monitor and analyze the growth of mouse glioma GL261 cells. • (1) GL-261 cells in logarithmic growth phase were prepared into a single cell suspension, and the cells were counted; • (2) GL261 cells were added into a 96-well plate at a density of 8x10^4 cells/mL, with 4-6 replicate wells per each group; • (3) The 96-well plate was then placed in an incubator for another 12-24 hours, and the plate was refreshed with a culture medium containing the drug at the cell confluence of about 20-30%. GSK126 and fenofibrate (FF) were serially diluted using the medium; • (4) The 96-well plate was then placed in the incubator suitable for the instrument, and detected with IncuCyte S3® Live-Cell Analysis System. Cell growth images of 4 different areas in each well were taken at an interval of 4 h using a 10× objective lens. • (5) The plate was real-time monitored for 48 h, and the cell confluence was determined by defining the cell edge using IncuCyte S3 image analysis software and normalized to the cell confluence at 0 h. […]
# C57BL/6 mice = experiment: Lipid accumulation in B16F10 tumor-bearing C57BL/6 mice; type: in vivo; conditions: B16F10 tumor-bearing C57BL/6 mice treated with GSK126
# Description: as §1, §3
# THP-1 cells = experiment: CCK-8 cell proliferation assay, THP-1; type: cell-based; conditions: 10 μM GSK126 for 24 h and 48 h
# Description: as §6
# melanoma B16F10 cells [8] = experiment: IncuCyte S3 live-cell proliferation of B16F10 cells; type: cell-based
# Description: as §6
# P=0.0108, P=0.0385, Kaplan-Meier survival analysis; (C) effect of telmisartan at different concentrations on the proliferation of U87 cells (left) and U251 cells (right) (3 replicates per group); (D) effect of fenofibrate at different concentrations on the proliferation of B16F10 cells (left) and 4T1 cells (right) (3 replicates per group); (E) FACS quantitative analysis of the percentage of cells positive for EdU (FITC+) staining 48 h after the telmisartan treatment on U87 and U251 cells. Single cells were first gated, followed by FITC+cells. The percentage of FITC+ cells was listed above the corresponding cell population. […]
# hepatoma Huh7 cells = experiment: IncuCyte S3 live-cell proliferation of Huh7 cells; type: cell-based
# Description: as §6, §7
# melanoma cells B16F10 = experiment: Cell scratch assay (migration) of B16F10 cells; type: cell-based; conditions: GSK126 10 μM, 36 h of culture, vs control group
# Description: as §4, §5
# human glioma cells U251 = experiment: Incucyte real-time proliferation of U251 cells; type: cell-based; conditions: telmisartan at different concentrations
# Description: (§8) P=0.0108, P=0.0385, Kaplan-Meier survival analysis; (C) effect of telmisartan at different concentrations on the proliferation of U87 cells (left) and U251 cells (right) (3 replicates per group); (D) effect of fenofibrate at different concentrations on the proliferation of B16F10 cells (left) and 4T1 cells (right) (3 replicates per group); (E) FACS quantitative analysis of the percentage of cells positive for EdU (FITC+) staining 48 h after the telmisartan treatment on U87 and U251 cells. Single cells were first gated, followed by FITC+cells. The percentage of FITC+ cells was listed above the corresponding cell population. 3 replicates were established for each group, with *P<0.05, **P<0.01, ***P<0.001, and ****P<0.0001, and ns for no statistical difference.
# (§9) Therefore, telmisartan and fenofibrate were selected to explore whether lipid metabolism-regulating drugs have anti-tumor effects. […] The effect of telmisartan (50 μM) on cell proliferation was further verified by EdU staining.
# human glioma cells U87 = experiment: Incucyte real-time proliferation of U87 cells; type: cell-based; conditions: telmisartan at different concentrations
# Description: as §8, §9
# U87 cells = experiment: EdU staining with flow cytometry, U87; type: cell-based, human; conditions: telmisartan 50 μM, 48 h, 24.25% before treatment
# Description: as §8, §9
# U251 cells = experiment: EdU staining with flow cytometry, U251; type: cell-based, human; conditions: telmisartan 50 μM, 48 h, 41.44% before treatment
# Description: as §8, §9
# [9] = GSK126 at different concentrations (10-20 μM)
smiles,measurement,setting,value
CC[C@H](C)n1cc(C)c2c(C(=O)NCc3c(C)cc(C)[nH]c3=O)cc(-c3ccc(N4CCNCC4)nc3)cc21 [GSK126],"mRNA and protein levels of ACLY, FASN, and SCD",[1],significantly elevated
same,apoptosis rate,B16F10 cells,limited capability to induce apoptosis
same,sensitivity (CCK-8 proliferation),[2]; 1 μM GSK126,very sensitive
same,proliferation (CCK-8),[2]; 10 μM GSK126 for 24 h and 48 h,significantly inhibited
same,"levels of fatty acids (α-linolenic acid, DHA, EPA, linoleic acid, γ-linolenic acid, 10Z-heptadienoic acid)",melanoma B16F10 cells [3],increased
same,IC50,[4],< 1000 nM
same,cell proliferation,hepatoma SMMC-7721 cells; GSK126 10 μM,less effective
same,cell proliferation,hepatoma SMMC-7721 cells; [9],inhibited cell proliferation in a dose-dependent manner
same,H3K27me3 level,[5],significantly down-regulated
same,"mRNA and protein levels of ACLY, FASN, and SCD",[6],significantly elevated
same,inhibitory effect on cell proliferation,"[7]; GSK126 20 μM alone, compared with 40 μM or combination",can not achieved
same,inhibitory effect on cell proliferation,"[7]; GSK126 40 μM, compared with GSK126 20 μM + fenofibrate 10 μM",the same as that of the combination
same,fat vacuoles and lipid deposition in liver tissue sections (H & E and oil red O staining),C57BL/6 mice,significant increase
same,levels of triglycerides (TG) in blood,C57BL/6 mice,significantly elevated
same,proliferation (CCK-8),THP-1 cells,significantly inhibited
same,cell proliferation,melanoma B16F10 cells [8]; GSK126 10 μM,less effective
same,cell proliferation,melanoma B16F10 cells [8]; [9],inhibited cell proliferation in a dose-dependent manner
same,cell proliferation,hepatoma Huh7 cells; GSK126 10 μM,less effective
same,cell proliferation,hepatoma Huh7 cells; [9],inhibited cell proliferation in a dose-dependent manner
same,cell migration,melanoma cells B16F10,did not effectively inhibit cell migration
CCCc1nc2c(C)cc(-c3nc4ccccc4n3C)cc2n1Cc1ccc(-c2ccccc2C(=O)O)cc1 [telmisartan],cell proliferation,human glioma cells U251,inhibit the proliferation
same,cell proliferation,human glioma cells U87,inhibit the proliferation
same,percentage of EdU+ cells,U87 cells,21.16%
same,percentage of EdU+ cells,U251 cells,38.78%

# Source: patent US20240398789A1, “PHARMACEUTICAL COMPOSITION FOR ENHANCING ANTI-TUMOR EFFECT OF EZH2 INHIBITOR AND USE THEREOF” (PEKING UNIVERSITY THIRD HOSPITAL, priority 2021, published 2024)
